Results published in patent US7960339B2, “Antimicrobial peptides” (Österreichische Akademie der Wissenschaften, priority 2006, dated 2011).
Read-outs that look alike come from different tables or passages of the source. Square brackets hold non-standard residues; d marks the D form. Ends that are not written are not given here. Peptide text beside a SMILES is read from it. * marks the point of attachment. Dicyclohexylacetyl = O=C(C(C1CCCCC1)C1CCCCC1)*; Butanoyl(2,2-Me2) = CCC(C)(C)C(=O)*; Octanoyl(6-Me) = CCC(C)CCCCC(=O)*; Octanoyl = CCCCCCCC(=O)*; X1 = CCCCC(CC)C(=O)*

Columns and labels:
[1] = tested on: LPS Re595; experiment: Local Shwartzmann reaction in rabbit (lipid A-induced hemorrhagic dermonecrosis); format: in vivo, New Zealand White rabbits; conditions: i.d. injection in shaved dorsal region; open necrosis observed after 72-96 hours; minimum 3 injections in minimum 3 rabbits
Description: (§1) The principle of lipid A-induced pro-inflammatory cytokine activity leading to hemorrhagic dermonecrosis (classical Shwartzmann reaction) was tested in rabbit, an animal model very close to humans in terms of sensitivity to LPS activity, and was compared to the inhibition of the lipid A-induced LAL enzymatic cascade activation leading to clot. Thereby, New Zealand White rabbits were injected in the shaved dorsal region with S. minnesota Re595 lipid A alone or with peptide 1:100 (w/w) (5 μg in 0.2 ml saline buffer; route i.d.). […] Polymyxin B (PmB) was used as a control.

[2] = tested on: LPS S. Minnesota Re595; experiment: Endpoint LAL activity (Limulus gel-clotting test), inhibition of lipid A-induced LAL enzymatic cascade; format: biochemical; conditions: sensibility 0.125 EU/ml, peptide:LPS 100:1 (w/w), minimum of 6 tests in triplicate
Description: as §1

[3] = tested on: C. neoformans ATCC 32045; format: cell-based
Description: C. neoformans ATCC 32045 cultures were maintained on yeast medium (YM; Difco Laboratories, Detroit, Mich.) agar plates at 4° C. Prior to the assay, the cultures were grown on agar plates and incubated for 72 hrs at 26° C. Two colonies of these newly grown fungal cultures were then inoculated in 5 ml of 2×YM broth, vortexed, and diluted 10-fold in 2×YM broth, for an approximate final assay concentration of 1×105 to 5×10^5 CFU/ml. In 96-well tissue culture plates, fungal suspensions in 2×YM broth were added to the peptides dispensed at concentrations ranging from 1 mg/ml to 1 μg/ml derived from serial twofold dilutions in sterile water. The plates were then incubated for 72 hrs at 26° C. The relative percent growth of the fungi found for each test sample was determined by the optical density at 620 nm (OD620) by using a Titertek Multiskan Plus apparatus. […] The IC50 were calculated by using a sigmoidal curve-fitting software program (Graphpad Prism; ISI Software, San Diego, Calif.).

CC[C@H](C)[C@@H]1NC(=O)[C@H](CCCNC(=N)N)NC(=O)[C@H]([C@@H](C)CC)NC(=O)[C@H](CCCNC(=N)N)NC(=O)[C@H](Cc2c[nH]c3ccccc23)NC(=O)[C@H](Cc2ccccc2)NC(=O)[C@H](CCCNC(=N)N)NC(=O)[C@H](CCCNC(=N)N)NC1=O [VF50, cyclo FWRIRIRR-NH2] (cyclo(FWRIRIRR))
Local Shwartzmann reaction in rabbit peptide: LPS Re595 100:1 (w/w) [1]: NEGATIVE | Endpoint LAL activity peptide: LPS Re595 100:1 (w/w) [2]: NEGATIVE

CC[C@H](C)[C@H](NC(=O)[C@H](CC(N)=O)NC(=O)[C@H](CCCNC(=N)N)NC(=O)[C@H](CCC(N)=O)NC(=O)[C@H](Cc1c[nH]c2ccccc12)NC(=O)[C@@H](N)Cc1ccccc1)C(=O)N[C@@H](CCCNC(=N)N)C(=O)N[C@@H](CCCCN)C(=O)N[C@@H](Cc1c[nH]c2ccccc12)C(=O)N[C@@H](CCCNC(=N)N)C(N)=O [VS1-15, FWQRNIRKWR-NH2] (H-FWQRNIRKWR-NH2)
average IC50 ([3]; 50% growth inhibition, OD620, 72 hrs at 26° C., 2×YM broth): 5 µg/mL | average MIC ([3]; lowest concentration that resulted in 2% growth, OD620, 72 hrs at 26° C., 2×YM broth): 16 µg/mL | Local Shwartzmann reaction in rabbit peptide: LPS Re595 100:1 (w/w) [1]: NEGATIVE | Endpoint LAL activity peptide: LPS Re595 100:1 (w/w) [2]: NEGATIVE

CCCCC(CC)C(=O)N1CCC[C@H]1C(=O)N[C@@H](Cc1ccccc1)C(=O)N[C@@H](Cc1c[nH]c2ccccc12)C(=O)N[C@@H](CCCNC(=N)N)C(=O)N[C@H](C(=O)N[C@@H](CCCNC(=N)N)C(=O)N[C@H](C(=O)N[C@@H](CCCNC(=N)N)C(=O)N[C@@H](CCCNC(=N)N)C(N)=O)[C@@H](C)CC)[C@@H](C)CC (stereo partly drawn) [VS1-51, 2-ethylhexanoyl PFWRIRIRR-NH2] (X1-PFWRIRIRR-NH2)
average IC50 ([3]; ATCC 32045, 72 h): 3 µg/mL | average MIC ([3]; ATCC 32045, 72 h): 8 µg/mL

CC[C@H](C)[C@H](NC(=O)[C@H](CCCNC(=N)N)NC(=O)[C@@H](NC(=O)[C@H](CCCNC(=N)N)NC(=O)[C@H](Cc1c[nH]c2ccccc12)NC(=O)[C@H](Cc1ccccc1)NC(=O)[C@@H]1CCCN1C(=O)C(C1CCCCC1)C1CCCCC1)[C@@H](C)CC)C(=O)N[C@@H](CCCNC(=N)N)C(=O)N[C@@H](CCCNC(=N)N)C(N)=O [VS1-54, dicyclohexylacetyl PFWRIRIRR-NH2] (Dicyclohexylacetyl-PFWRIRIRR-NH2)
average IC50 ([3]; ATCC 32045, 72 h): 3 µg/mL | average MIC ([3]; ATCC 32045, 72 h): 8 µg/mL

CCCCCCCC(=O)N[C@@H](Cc1ccccc1)C(=O)N[C@@H](Cc1c[nH]c2ccccc12)C(=O)N[C@@H](CCCNC(=N)N)C(=O)N[C@H](C(=O)N[C@@H](CCCNC(=N)N)C(=O)N[C@H](C(=O)N[C@@H](CCCNC(=N)N)C(=O)N[C@@H](CCCNC(=N)N)C(N)=O)[C@@H](C)CC)[C@@H](C)CC [VS1-55, octanoyl FWRIRIRR-NH2] (Octanoyl-FWRIRIRR-NH2)
average IC50 ([3]; ATCC 32045, 72 h): 4 µg/mL | average MIC ([3]; ATCC 32045, 72 h): 16 µg/mL

CCCCC(CC)C(=O)N[C@@H](Cc1ccccc1)C(=O)N[C@@H](Cc1c[nH]c2ccccc12)C(=O)N[C@@H](CCCNC(=N)N)C(=O)N[C@H](C(=O)N[C@@H](CCCNC(=N)N)C(=O)N[C@H](C(=O)N[C@@H](CCCNC(=N)N)C(=O)N[C@@H](CCCNC(=N)N)C(N)=O)[C@@H](C)CC)[C@@H](C)CC (stereo partly drawn) [VS1-56, 2-ethylhexanoyl FWRIRIRR-NH2] (X1-FWRIRIRR-NH2)
average IC50 ([3]; ATCC 32045, 72 h): 3 µg/mL | average MIC ([3]; ATCC 32045, 72 h): 16 µg/mL

CC[C@H](C)[C@H](NC(=O)[C@H](CCCNC(=N)N)NC(=O)[C@@H](NC(=O)[C@H](CCCNC(=N)N)NC(=O)[C@H](Cc1c[nH]c2ccccc12)NC(=O)[C@H](Cc1ccccc1)NC(=O)C(C)(C)CC)[C@@H](C)CC)C(=O)N[C@@H](CCCNC(=N)N)C(=O)N[C@@H](CCCNC(=N)N)C(N)=O [VS1-57, 2,2-dimethylbutanoyl FWRIRIRR-NH2] ({Butanoyl(2,2-Me2)}-FWRIRIRR-NH2)
average IC50 ([3]; ATCC 32045, 72 h): 2 µg/mL | average MIC ([3]; ATCC 32045, 72 h): 4 µg/mL

CCC(C)CCCCC(=O)N[C@@H](Cc1ccccc1)C(=O)N[C@@H](Cc1c[nH]c2ccccc12)C(=O)N[C@@H](CCCNC(=N)N)C(=O)N[C@H](C(=O)N[C@@H](CCCNC(=N)N)C(=O)N[C@H](C(=O)N[C@@H](CCCNC(=N)N)C(=O)N[C@@H](CCCNC(=N)N)C(N)=O)[C@@H](C)CC)[C@@H](C)CC (stereo partly drawn) [VS1-58, 6-methyloctanoyl FWRIRIRR-NH2] ({Octanoyl(6-Me)}-FWRIRIRR-NH2)
average IC50 ([3]; ATCC 32045, 72 h): 6 µg/mL | average MIC ([3]; ATCC 32045, 72 h): 16 µg/mL

CC[C@H](C)[C@H](NC(=O)[C@H](CCCNC(=N)N)NC(=O)[C@@H](NC(=O)[C@H](CCCNC(=N)N)NC(=O)[C@H](Cc1c[nH]c2ccccc12)NC(=O)[C@H](Cc1ccccc1)NC(=O)C(C1CCCCC1)C1CCCCC1)[C@@H](C)CC)C(=O)N[C@@H](CCCNC(=N)N)C(=O)N[C@@H](CCCNC(=N)N)C(N)=O [VS1-59, dicyclohexylacetyl FWRIRIRR-NH2] (Dicyclohexylacetyl-FWRIRIRR-NH2)
average IC50 ([3]; ATCC 32045, 72 h): 14 µg/mL | average MIC ([3]; ATCC 32045, 72 h): 62 µg/mL

CCCCCCCC(=O)N[C@@H](Cc1ccccc1)C(=O)N[C@@H](Cc1c[nH]c2ccccc12)C(=O)N[C@@H](CCCNC(=N)N)C(=O)N[C@@H](CCCNC(=N)N)C(=O)N[C@@H](Cc1ccccc1)C(=O)N[C@@H](Cc1c[nH]c2ccccc12)C(=O)N[C@@H](CCCNC(=N)N)C(=O)N[C@@H](CCCNC(=N)N)C(N)=O [VS1-60, octanoyl FWRRFWRR-NH2] (Octanoyl-FWRRFWRR-NH2)
average IC50 ([3]; ATCC 32045, 72 h): 10 µg/mL | average MIC ([3]; ATCC 32045, 72 h): 32 µg/mL

CCCCC(CC)C(=O)N[C@@H](Cc1ccccc1)C(=O)N[C@@H](Cc1c[nH]c2ccccc12)C(=O)N[C@@H](CCCNC(=N)N)C(=O)N[C@@H](CCCNC(=N)N)C(=O)N[C@@H](Cc1ccccc1)C(=O)N[C@@H](Cc1c[nH]c2ccccc12)C(=O)N[C@@H](CCCNC(=N)N)C(=O)N[C@@H](CCCNC(=N)N)C(N)=O (stereo partly drawn) [VS1-61, 2-ethylhexanoyl FWRRFWRR-NH2] (X1-FWRRFWRR-NH2)
average IC50 ([3]; ATCC 32045, 72 h): 6 µg/mL | average MIC ([3]; ATCC 32045, 72 h): 16 µg/mL

CCC(C)(C)C(=O)N[C@@H](Cc1ccccc1)C(=O)N[C@@H](Cc1c[nH]c2ccccc12)C(=O)N[C@@H](CCCNC(=N)N)C(=O)N[C@@H](CCCNC(=N)N)C(=O)N[C@@H](Cc1ccccc1)C(=O)N[C@@H](Cc1c[nH]c2ccccc12)C(=O)N[C@@H](CCCNC(=N)N)C(=O)N[C@@H](CCCNC(=N)N)C(N)=O [VS1-62, 2,2-dimethylbutanoyl FWRRFWRR-NH2] ({Butanoyl(2,2-Me2)}-FWRRFWRR-NH2)
average IC50 ([3]; ATCC 32045, 72 h): 4 µg/mL | average MIC ([3]; ATCC 32045, 72 h): 16 µg/mL

CCC(C)CCCCC(=O)N[C@@H](Cc1ccccc1)C(=O)N[C@@H](Cc1c[nH]c2ccccc12)C(=O)N[C@@H](CCCNC(=N)N)C(=O)N[C@@H](CCCNC(=N)N)C(=O)N[C@@H](Cc1ccccc1)C(=O)N[C@@H](Cc1c[nH]c2ccccc12)C(=O)N[C@@H](CCCNC(=N)N)C(=O)N[C@@H](CCCNC(=N)N)C(N)=O (stereo partly drawn) [VS1-63, 6-methyloctanoyl FWRRFWRR-NH2] ({Octanoyl(6-Me)}-FWRRFWRR-NH2)
average IC50 ([3]; ATCC 32045, 72 h): 11 µg/mL | average MIC ([3]; ATCC 32045, 72 h): 62 µg/mL

N=C(N)NCCC[C@H](NC(=O)[C@H](CCCNC(=N)N)NC(=O)[C@H](Cc1c[nH]c2ccccc12)NC(=O)[C@H](Cc1ccccc1)NC(=O)[C@H](CCCNC(=N)N)NC(=O)[C@H](CCCNC(=N)N)NC(=O)[C@H](Cc1c[nH]c2ccccc12)NC(=O)[C@H](Cc1ccccc1)NC(=O)C(C1CCCCC1)C1CCCCC1)C(N)=O [VS1-64, dicyclohexylacetyl FWRRFWRR-NH2] (Dicyclohexylacetyl-FWRRFWRR-NH2)
average IC50 ([3]; ATCC 32045, 72 h): 6 µg/mL | average MIC ([3]; ATCC 32045, 72 h): 32 µg/mL

FWQRNIRKVRRRI-NH2 [Peptide P1-12]
Local Shwartzmann reaction in rabbit peptide: LPS Re595 100:1 (w/w) [1]: NEGATIVE | Endpoint LAL activity peptide: LPS Re595 100:1 (w/w) [2]: NEGATIVE

FWQRNYRKVR-NH2 [Peptide P1-39]
Local Shwartzmann reaction in rabbit peptide: LPS Re595 100:1 (w/w) [1]: NEGATIVE | Endpoint LAL activity peptide: LPS Re595 100:1 (w/w) [2]: NEGATIVE

FwRNIRIRR-NH2 (F[dW]RNIRIRR-NH2; N-terminus assumed; SMILES CC[C@H](C)[C@H](NC(=O)[C@H](CCCNC(=N)N)NC(=O)[C@@H](NC(=O)[C@H](CC(N)=O)NC(=O)[C@H](CCCNC(=N)N)NC(=O)[C@@H](Cc1c[nH]c2ccccc12)NC(=O)[C@@H](N)Cc1ccccc1)[C@@H](C)CC)C(=O)N[C@@H](CCCNC(=N)N)C(=O)N[C@@H](CCCNC(=N)N)C(N)=O) [Peptide P2-11]
Local Shwartzmann reaction in rabbit peptide: LPS Re595 100:1 (w/w) [1]: NEGATIVE | Endpoint LAL activity peptide: LPS Re595 100:1 (w/w) [2]: NEGATIVE

KRWSWKK-NH2 [Peptide P1-63]
Local Shwartzmann reaction in rabbit peptide: LPS Re595 100:1 (w/w) [1]: NEGATIVE | Endpoint LAL activity peptide: LPS Re595 100:1 (w/w) [2]: NEGATIVE

RFWQRNIRIRR-NH2 [Peptide P2-18]
Local Shwartzmann reaction in rabbit peptide: LPS Re595 100:1 (w/w) [1]: NEGATIVE | Endpoint LAL activity peptide: LPS Re595 100:1 (w/w) [2]: NEGATIVE

RWQRNIRIRR-NH2 [Peptide P2-19]
Local Shwartzmann reaction in rabbit peptide: LPS Re595 100:1 (w/w) [1]: NEGATIVE | Endpoint LAL activity peptide: LPS Re595 100:1 (w/w) [2]: NEGATIVE
